Results reported in ChEMBL document CHEMBL5257077, “d-chiro-Inositol Derivatives with Multidrug Resistance Reversal Activities from the Fruits of Chisocheton siamensis” (J Nat Prod, 2023).

Experiment: Reversal of multidrug resistance in human MCF7-DOX cells measured for 48 hrs by MTT assay
Format: functional, cell-based

Row | Structure (SMILES) | IC50 [µM]
1 | C/C=C(\C)C(=O)O[C@H]1[C@@H](OC(C)=O)[C@H](OC(C)=O)[C@H](OC(=O)/C(C)=C/C)[C@@H](OC(=O)/C(=C/C)CO)[C@@H]1OC(=O)/C(=C/C)CO | 3.4
2 | C/C=C(\C)C(=O)O[C@H]1[C@H](OC(=O)/C(C)=C/C)[C@@H](OC(=O)/C(C)=C/C)[C@@H](O)[C@H](O)[C@@H]1OC(=O)/C(C)=C/C | 4
3 | C/C=C(\C)C(=O)O[C@@H]1[C@H](O)[C@@H](OC(=O)/C(C)=C/C)[C@H](OC(=O)/C(C)=C/C)[C@@H](OC(=O)/C(C)=C/C)[C@H]1O | 6.5
4 | COc1cccc2c1C(=O)c1c(O)c3c(c(O)c1C2=O)C[C@@](O)(C(=O)CO)C[C@@H]3O[C@H]1C[C@H](N)[C@H](O)[C@H](C)O1 [DOXORUBICIN] | 22.4
5 | COc1ccc(CCN(C)CCCC(C#N)(c2ccc(OC)c(OC)c2)C(C)C)cc1OC (stereo not given) [VERAPAMIL] | 2.1
